According to PMC7510464, “The wasp venom antimicrobial peptide polybia‐CP and its synthetic derivatives display antiplasmodial and anticancer properties” (Bioengineering & Translational Medicine, 2020):
No end group written: not given here.

Key:
[1] = tested on: human mammary cells (MCF-7); test: MTT assay, MCF-7 cells; format: cell-based; conditions: 570 nm, method gives serial dilutions 0.09–50 μmol L^−1, 2 and 24 hr (time for IC50 not stated), triplicate, NO = not observed, read-out: IC50, concentration of peptide needed for killing 50% of MCF-7
Procedure: (§1) Human mammary adenocarcinoma (MCF‐7) cells were maintained in RPMI 1640 medium supplemented with 10% heat inactivated fetal bovine serum and 100 μg ml^−1 penicillin/10 μg ml^−1 streptomycin. While hepatocellular carcinoma (Hep G2) cells, neuroblastoma (SHSY‐5Y) cells and melanoma (SK‐mel‐147) cells were maintained in RPMI 1640 medium supplemented with 10% heat inactivated fetal bovine serum and 100 μg ml^−1 penicillin/10 μg ml^−1 streptomycin. One day before the assays, the cells were plated in 96‐well microtiter plate with a density of 2.0 × 10^4 cells/well at 37°C and 5% CO2. On the next day, cells were treated with peptides serial dilutions (0.09–50 μmol L^−1), incubated in individual microtiter plates for 2 and 24 hr and MTT assays were performed after treatment. Human breast epithelial cells MCF‐10A (ATCC) were maintained in mixture of Dulbecco's modified Eagle's medium and Ham's F12 nutrient mixture supplemented with 5% inactivated horse serum, 10 μg ml^−1 insulin, 0.02 μg ml^−1 human epidermal growth factor, 0.5 μg ml^−1 hydrocortisone, 0.10 μg ml^−1 choleric toxin, 100 U ml^−1 penicillin, and 100 μg ml^−1 streptomycin. […]
(§2) Briefly, MTT (Sigma–Aldrich) was dissolved in water and filtered to make up a 5 μg ml^−1 solution. […] Finally, the microplates were read on an ELISA reader at 570 nm. […]

[2] = tested on: Plasmodium gallinaceum sporozoites; test: Effect of peptides on salivary gland-derived P. gallinaceum sporozoites (membrane integrity, propidium iodide fluorescence); format: cell-based; conditions: peptides 0.39–6.25 μmol L^−1, 9000 sporozoites in 50 μl PBS, 37°C, 1 hr, fluorescence microscopy, three independent replicates
Procedure: To assess the antiplasmodial activity of Pol‐CP‐NH2 and its derivatives, the molecules were incubated with Plasmodium gallinaceum sporozoites. The avian malaria parasite, P. gallinaceum, was chosen as the plasmodium model for this study because it presents lower risk and it is highly similar ^27 , ^28 to existing Plasmodium falciparum models responsible for human malaria. ^29
FIGURE 2 Antiplasmodial activity of polybia‐CP and derivatives in vitro. […] In red, we highlight the conditions at which the peptides were not active against the Plasmodium sporozoites. Experiments were performed in three independent replicates with three repetitions for each condition
Nine thousand P. gallinaceum mature sporozoites were pulled from the salivary glands of A. aegypti and incubated in 50 μl of PBS solution, with 40 μmol L^−1 digitonin (positive control), 0.39–6.25 μmol L^−1 peptides or negative control (PBS solution), at 37°C for 1 hr. Cell membrane integrity was then observed using a Carl Zeiss inverted fluorescence microscope (model Observer Axio Vision A.1) coupled to an image capture Zeiss AxioCam HR digital camera (1,300 × 1,030 pixels resolution and 8‐bit quantization) after addition of 1 μl of the propidium iodide aqueous solution (200 μmol L^−1) in […] of total solution volume. Images were obtained using a ×40 objective lens and a green filter effect in red. […]

[3] = tested on: neuroblastoma cell (SH-SY5Y); test: MTT assay, SH-SY5Y cells; format: cell-based; conditions: 570 nm, method gives serial dilutions 0.09–50 μmol L^−1, 2 and 24 hr (time for IC50 not stated), triplicate, NO = not observed, read-out: IC50, concentration of peptide needed for killing 50% of SH-SY5Y
Procedure: as §1, §2

[4] = tested on: carcinoma cells of human liver (HepG2); test: MTT assay, HepG2 cells; format: cell-based; conditions: 570 nm, method gives serial dilutions 0.09–50 μmol L^−1, 2 and 24 hr (time for IC50 not stated), triplicate, NO = not observed, read-out: IC50, concentration of peptide needed for killing 50% of HepG2
Procedure: as §1, §2

[5] = tested on: human embryonic kidney (HEK293) cells; conditions: at 25 μmol L^−1; cited from earlier work
Source text: The inhibitory activities observed against cancer cell lines are at the same range of concentrations reported for antimicrobial activity ^6 (Figure 2b) for this family of peptides.

Substance	IC50 [1] [µM]	antiplasmodial activity (fluorescent sporozoites, membrane disrupted) [2]	IC50 [3] [µM]	IC50 [4] [µM]	toxicity against HEK293 cells [5]
ILGKILGLLKSL-NH2 [[Lys]^4-Pol-CP-NH2]	200	most active ones against Plasmodium	> 50	> 50	–
ILGTILGLLKSL-NH2 [Pol-CP-NH2, Ile‐Leu‐Gly‐Thr‐Ile‐Leu‐Gly‐Leu‐Leu‐Lys‐Ser‐Leu‐NH2]	200	–	–	–	one of the most toxic AMPs of the polybia‐CP family
